From article PMC9745799, “Polymyxin Stereochemistry and Its Role in Antibacterial Activity and Outer Membrane Disruption” (ACS Infectious Diseases, 2022) come the findings set out here.

Common to all, as to assay: NPN uptake assay (outer membrane disruption)
Holding throughout (format): cell-based

In experiment [1] the test system is E. coli BW25113 (rough LPS). The note with it: NPN fluorescence after 1 h at RT, 5 mM HEPES pH 7.2 + 20 mM glucose, triplicates, result in words. As for the experimental part:
(§1) Bacteria were taken from glycerol stocks and grown in TSB overnight. Cultures were diluted either 50 or 100 times in Lysogeny Broth (LB) and grown at 37 °C to an OD600 of 0.5. Test compounds were prepared in HEPES buffer (5 mM, pH 7.2 + 20 mM glucose) and serially diluted (25 μL per well) on 1/2 the area of black 96-well plates with a transparent bottom. N-Phenyl-1-naphthylamine (NPN) was dissolved in acetone (0.5 mM) and diluted to 40 μM in HEPES buffer (5 mM, pH 7.2 + 20 mM glucose). 25 μL of the NPN solution was added to each well. The bacterial suspension was spin down (1000g, 10 min), and the remaining cell pellet was resuspended in half the original volume of HEPES buffer (5 mM, pH 7.2 + 20 mM glucose). 50 μL of bacterial suspension was added to each well. NPN fluorescence was measured after 1 h of incubation at RT with λex 355 ± 20 nm and λem 420 ± 20 nm. The measured fluorescence signal was corrected for NPN fluorescence in the absence of compounds (bacteria in buffer + NPN) and presented as relative fluorescence units (RFUs).

Experiment [2] has as its system E. coli ATCC 25922 (smooth LPS). The settings on record: NPN fluorescence after 1 h at RT, 5 mM HEPES pH 7.2 + 20 mM glucose, triplicates, result in words. How it is done: as §1
The test system of experiment [3] is polymyxin-resistant, mcr-1 positive E. coli. The settings on record: E. coli mcr-1 positive; NPN fluorescence after 1 h at RT, highest concentration tested 32 μg/mL, triplicates; result in words. How it is done: as §1

Positions of bridges follow the written chain, without caps; N, C: chain ends. Non-standard residues stand in square brackets, D forms with d. Residues, ends and D or L forms follow the SMILES beside them. *: point of attachment. dDab = NCC[C@@H](N)C(=O)O; Heptanoyl = CCCCCCC(=O)*

Turning to `CCCCCCC(=O)N[C@H](CCN)C(=O)N[C@@H](C(=O)N[C@H](CCN)C(=O)N[C@@H]1CCNC(=O)[C@@H]([C@H](C)O)NC(=O)[C@@H](CCN)NC(=O)[C@@H](CCN)NC(=O)[C@@H](CC(C)C)NC(=O)[C@H](Cc2ccccc2)NC(=O)[C@@H](CCN)NC1=O)[C@H](C)O` [ent-PmxB4] (Heptanoyl-[dDab][dT][dDab][dDab][dDab]F[dL][dDab][dDab][dT]; lactam 4-C), the “OM disruption (NPN uptake)” value in experiment [1] is on record as “moderate OM disruption”; in experiment [2], “moderate OM disruption”; in experiment [3] it was “full NPN uptake albeit at higher concentrations”.
